Assay results taken from the NIST ThermoML archive (doi:10.1021/je9006019).
“And” between values parts separate entries of the source, which are not always exact repeats. Identical values can stand only once.

Test: mn = molality of the nth substance listed, in mol/kg
Details: 101 kPa, Liquid; for viscosity: Capillary tube (Ostwald / Ubbelohde) method; for electrical conductivity: DIgital conductivity meter (306) of Systronics; for speed of sound: Pulse-echo method

CCCCCCCCCCCCOS(=O)(=O)[O-].[Na+] [sodium dodecyl sulfate] + O
Details | electrical conductivity [S/m] | mass density [kg/m3] | speed of sound | viscosity [mPa·s]
298.15 K, m1 = 0.001 | – | – | 1497.2 m/s | –
298.15 K, m1 = 0.003 | – | – | 1497.5 m/s | –
298.15 K, m1 = 0.005 | – | – | 1497.8 m/s | –
298.15 K, m1 = 0.007 | – | – | 1497.9 m/s | –
298.15 K, m1 = 0.008 | – | – | 1497.9 m/s | –
298.15 K, m1 = 0.01 | – | – | 1498.1 m/s | –
298.15 K, m1 = 0.02 | – | – | 1498.2 m/s | –
298.15 K, m1 = 0.03 | – | – | 1498.4 m/s | –
298.15 K, m1 = 0.05 | 1 | 999.078 | 1498.3 m/s and 1498.3 m/s | 0.986
298.15 K, m1 = 0.07 | – | – | 1498.2 m/s | –
298.15 K, m1 = 0.1 | 2.6 | 1000.97 | 1498 m/s | 1.133
298.15 K, m1 = 0.103 | – | – | 1498.2 m/s | –
303.15 K, m1 = 0.001 | – | – | 1509.5 m/s | –
303.15 K, m1 = 0.003 | – | – | 1509.8 m/s | –
303.15 K, m1 = 0.005 | – | – | 1510.1 m/s | –
303.15 K, m1 = 0.007 | – | – | 1510.1 m/s | –
303.15 K, m1 = 0.008 | – | – | 1510.2 m/s | –
303.15 K, m1 = 0.01 | – | – | 1510.3 m/s | –
303.15 K, m1 = 0.02 | – | – | 1510.3 m/s | –
303.15 K, m1 = 0.03 | – | – | 1510.4 m/s | –
303.15 K, m1 = 0.05 | – | – | 1510.2 m/s | –
303.15 K, m1 = 0.07 | – | – | 1509.9 m/s | –
303.15 K, m1 = 0.103 | – | – | 1509.7 m/s | –
308.15 K, m1 = 0.001 | – | – | 1520.1 m/s | –
308.15 K, m1 = 0.003 | – | – | 1520.4 m/s | –
308.15 K, m1 = 0.005 | – | – | 1520.6 m/s | –
308.15 K, m1 = 0.007 | – | – | 1520.7 m/s | –
308.15 K, m1 = 0.008 | – | – | 1520.7 m/s | –
308.15 K, m1 = 0.01 | – | – | 1520.8 m/s | –
308.15 K, m1 = 0.02 | – | – | 1520.8 m/s | –
308.15 K, m1 = 0.03 | – | – | 1520.7 m/s | –
308.15 K, m1 = 0.05 | 2.1 | 995.942 | 1520.3 m/s and 1520.2 m/s | 0.79
308.15 K, m1 = 0.07 | – | – | 1519.9 m/s | –
308.15 K, m1 = 0.1 | 3.4 | 997.734 | 1519.1 m/s | 0.87
308.15 K, m1 = 0.103 | – | – | 1519.3 m/s | –
313.15 K, m1 = 0.001 | – | – | 1529 m/s | –
313.15 K, m1 = 0.003 | – | – | 1529.3 m/s | –
313.15 K, m1 = 0.005 | – | – | 1529.5 m/s | –
313.15 K, m1 = 0.007 | – | – | 1529.5 m/s | –
313.15 K, m1 = 0.008 | – | – | 1529.6 m/s | –
313.15 K, m1 = 0.01 | – | – | 1529.7 m/s | –
313.15 K, m1 = 0.02 | – | – | 1529.5 m/s | –
313.15 K, m1 = 0.03 | – | – | 1529.4 m/s | –
313.15 K, m1 = 0.05 | – | – | 1528.8 m/s | –
313.15 K, m1 = 0.07 | – | – | 1528.2 m/s | –
313.15 K, m1 = 0.103 | – | – | 1527.3 m/s | –
